Reference: PubChem BioAssay (NCI)
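Step 1: Grow cells in 96-well plates. Step 2: Expose to compound for 48 hours at 5 concentrations. Step 3: Interpolate endpoints linearly; if unreached, use highest concentration. TGI marks complete inhibition of growth.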

What was measured:
Assay in all cases: NCI-60 cell line screen, 48 h
CAKI-1 renal = system: CAKI-1 renal
CCRF-CEM leukemia = system: CCRF-CEM leukemia
COLO 205 colon = system: COLO 205 colon
HCC-2998 colon = system: HCC-2998 colon
HOP-92 NSCLC = system: HOP-92 NSCLC
LOX IMVI melanoma = system: LOX IMVI melanoma
MOLT-4 leukemia = system: MOLT-4 leukemia
RPMI-8226 leukemia = system: RPMI-8226 leukemia
SF-268 CNS = system: SF-268 CNS
SNB-75 CNS = system: SNB-75 CNS

CC(C)[Si](OC1=C(C(=O)N(C)c2cccc(Cl)c2)CCCC1)(C(C)C)C(C)C
TGI (CAKI-1 renal): 25.9 µM
TGI (CCRF-CEM leukemia): 49 µM
TGI (COLO 205 colon): 35 µM
TGI (HCC-2998 colon): 34 µM
TGI (HOP-92 NSCLC): 25.4 µM
TGI (LOX IMVI melanoma): 32.6 µM
TGI (MOLT-4 leukemia): > 100 µM
TGI (RPMI-8226 leukemia): 42.4 µM
TGI (SF-268 CNS): 28.6 µM
TGI (SNB-75 CNS): 22.8 µM
